Measurements from PMC5086648, “Structural and Functional Elucidation of Peptide Ts11 Shows Evidence of a Novel Subfamily of Scorpion Venom Toxins” (Toxins, 2016).
Bridge positions count the residues as written; N and C are the ends. Peptide text beside a SMILES is read from it.

Assays:
Nav1.4 (rNaV1.4) = test: TEVC electrophysiology, Nav1.4 in Xenopus oocytes; assay type: cell-based, rat; details: 1 μM, two-electrode voltage-clamp, 100 ms depolarization to 0 mV from −90 mV, number of cells ≥ 3
Description: (§1) For the expression of the voltage gated potassium channels (rKV1.1, rKV1.2, hKV1.3, rKV1.4, rKV1.5, rKV1.6, Shaker IR, rKV2.1, hKV3.1, rKV4.2, hERG, KV10.1) and the voltage gated sodium channels (rNaV1.1, rNaV1.4, hNaV1.5, mNaV1.6 and DmNav1) in Xenopus oocytes, the linearized plasmids were transcribed using the T7 or SP6 mMESSAGE-mMACHINE transcription kit (Ambion, Waltham, MA, USA). The harvesting of stage V–VI oocytes from anaesthetized female X. laevis frog has been previously described. Oocytes were injected with 30–50 nL of cRNA at a concentration of 1 ng/nL using a micro-injector (Drummond Scientfic, Broomall, PA, USA). The oocytes were incubated in a solution containing (in mM): NaCl, 96; KCl, 2; CaCl2, 1.8; MgCl2, 2 and HEPES, 5 (pH 7.4), supplemented with 50 mg/L gentamycin sulfate.
(§2) Two-electrode voltage-clamp recordings were performed at room temperature (18–22 °C) using a Geneclamp 500 amplifier (Molecular Devices, Silicon Valley, CA, USA) controlled by a pClamp data acquisition system (Axon Instruments, Union City, CA, USA). Whole cell currents from oocytes were recorded 1–10 days after injection. Bath solution composition was ND96 (in mM): NaCl, 96; KCl, 2; CaCl2, 1.8; MgCl2, 2 and HEPES, 5 (pH 7.4) (in mM): NaCl, 2; KCl, 96; CaCl2, 1.8; MgCl2, 2 and HEPES, 5 (pH 7.4). […]

Nav1.5 (hNaV1.5) = test: TEVC electrophysiology, Nav1.5 in Xenopus oocytes; assay type: cell-based, human; details: 1 μM, two-electrode voltage-clamp, 100 ms depolarization to 0 mV from −90 mV, number of cells ≥ 3
Description: as §1, §2

Kv channels = test: TEVC electrophysiology, Kv channel panel in Xenopus oocytes; assay type: cell-based; details: discussion, Kv channels overall
Description: as §1, §2

Kv1.2 (rKV1.2) = test: TEVC electrophysiology, Kv1.2 in Xenopus oocytes; assay type: cell-based, rat
Description: as §1, §2

Kv10.1 = test: TEVC electrophysiology, Kv10.1 in Xenopus oocytes; assay type: cell-based; details: 3 μM, native toxin, two-electrode voltage-clamp, ND96 pH 7.4, 18–22 °C, 1 s depolarization to 0 mV from −90 mV, n ≥ 3
Description: as §1, §2

Nav channels = test: TEVC electrophysiology, Nav channel panel in Xenopus oocytes; assay type: cell-based; details: discussion; tested at 1 μM
Description: as §1, §2

Kv4.2 (rKV4.2) = test: TEVC electrophysiology, Kv4.2 in Xenopus oocytes; assay type: cell-based, rat
Description: as §1, §2

Kv1.3 (hKV1.3) = molecular target: T1, Kv1.3 (hKV1.3) (Homo sapiens, UniProt P22001); test: TEVC electrophysiology, Kv1.3 in Xenopus oocytes; assay type: cell-based
T1 construct: expressed in transfected cells; host or cells: Xenopus laevis oocytes injected with cRNA
T1 sequence (P22001 whole entry): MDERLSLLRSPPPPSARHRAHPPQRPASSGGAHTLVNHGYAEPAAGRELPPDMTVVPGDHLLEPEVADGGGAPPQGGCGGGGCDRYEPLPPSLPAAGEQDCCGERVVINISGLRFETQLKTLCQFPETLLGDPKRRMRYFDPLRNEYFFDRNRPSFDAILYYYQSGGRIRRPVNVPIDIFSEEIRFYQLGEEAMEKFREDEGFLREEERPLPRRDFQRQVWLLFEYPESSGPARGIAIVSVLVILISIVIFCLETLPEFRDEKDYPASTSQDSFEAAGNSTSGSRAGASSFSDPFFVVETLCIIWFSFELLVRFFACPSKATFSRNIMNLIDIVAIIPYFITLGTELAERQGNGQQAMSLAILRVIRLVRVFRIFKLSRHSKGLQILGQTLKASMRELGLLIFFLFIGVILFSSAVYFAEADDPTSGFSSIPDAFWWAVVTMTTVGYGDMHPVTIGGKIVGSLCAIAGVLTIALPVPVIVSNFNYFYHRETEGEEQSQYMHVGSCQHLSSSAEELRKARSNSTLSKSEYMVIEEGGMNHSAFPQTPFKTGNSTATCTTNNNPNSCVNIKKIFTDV
Description: as §1
Two-electrode voltage-clamp recordings were performed at room temperature (18–22 °C) using a Geneclamp 500 amplifier (Molecular Devices, Silicon Valley, CA, USA) controlled by a pClamp data acquisition system (Axon Instruments, Union City, CA, USA). Whole cell currents from oocytes were recorded 1–10 days after injection. Bath solution composition was ND96 (in mM): NaCl, 96; KCl, 2; CaCl2, 1.8; MgCl2, 2 and HEPES, 5 (pH 7.4) (in mM): NaCl, 2; KCl, 96; CaCl2, 1.8; MgCl2, 2 and HEPES, 5 (pH 7.4). Voltage and current electrodes were filled with KCl 3 M. Resistances of both electrodes were kept between […]. The elicited currents were sampled at 1 kHz and filtered at 0.5 kHz (for potassium currents) or sampled at 20 kHz and filtered at 2 kHz (for sodium currents) using a four-pole low-pass Bessel filter. Leak subtraction was performed using a -P/4 protocol.
The KV1.1–KV1.6, KV2.1, KV3.1 and KV4.2 and Shaker IR currents were evoked by 250 ms depolarizations to 0 mV followed by a 250 ms pulse to −50 mV, from a holding potential of −90 mV. Current traces of hERG channels were elicited by applying a pulse from −90 mV to +40 mV for 2.5 s followed by a step to −120 mV for 2.5 s. The Kv 10.1 currents were evoked by 1 s depolarization to 0 mV, from a holding potential of −90 mV. Sodium current traces were evoked, from a holding potential of −90 mV, by 100 ms depolarization to 0 mV. In order to investigate the current-voltage relationship, current traces were evoked by 10 mV depolarization steps from a holding potential of −90 mV.
To assess the concentration-response relationship of Ts11 on Kv1.3, data were fitted with the Hill equation: y = 100/[1 + (IC50/[toxin])^h], where y is the amplitude of the toxin-induced effect, IC50 is the toxin concentration at half maximal efficacy, [toxin] is the toxin concentration and h is the Hill coefficient (Hill coefficient: 0.8). Current-voltage relationship was determined by 100 ms step depolarization between −90 and +70 mV, using 10 mV increments. All data represent at least 3 independent experiments (n = 3) and are presented as mean ± standard error.

DmNav1 = test: TEVC electrophysiology, DmNav1 in Xenopus oocytes; assay type: cell-based, insect; details: 1 μM, two-electrode voltage-clamp, 100 ms depolarization to 0 mV from −90 mV, number of cells ≥ 3
Description: as §1, §2

Nav1.1 (rNaV1.1) = test: TEVC electrophysiology, Nav1.1 in Xenopus oocytes; assay type: cell-based, rat; details: 1 μM, two-electrode voltage-clamp, 100 ms depolarization to 0 mV from −90 mV, number of cells ≥ 3
Description: as §1, §2

Nav1.6 (mNaV1.6) = test: TEVC electrophysiology, Nav1.6 in Xenopus oocytes; assay type: cell-based, mouse; details: 1 μM, two-electrode voltage-clamp, 100 ms depolarization to 0 mV from −90 mV, number of cells ≥ 3
Description: as §1, §2

Shaker IR = test: TEVC electrophysiology, Shaker IR in Xenopus oocytes; assay type: cell-based; details: 3 μM, native toxin, two-electrode voltage-clamp, ND96 pH 7.4, 18–22 °C, 250 ms depolarizations to 0 mV from −90 mV, n ≥ 3
Description: as §1, §2

hERG = test: TEVC electrophysiology, hERG in Xenopus oocytes; assay type: cell-based
Description: as §1, §2

[1] = 3 μM, native toxin, two-electrode voltage-clamp, Xenopus oocytes, ND96 pH 7.4, 18–22 °C, 250 ms depolarizations to 0 mV from −90 mV, n ≥ 3
[2] = 5 μM, compared with 3 μM, data not shown

## CC(C)C[C@@H]1NC(=O)CNC(=O)[C@@H](NC(=O)[C@H](CCCCN)NC(=O)[C@@H]2CCCN2C(=O)[C@@H](N)CCCCN)CSSC[C@@H]2NC(=O)[C@@H]3CSSC[C@@H]4NC(=O)[C@H](CCCCN)NC(=O)CNC(=O)[C@H](CO)NC(=O)[C@H](CO)NC(=O)[C@H](CSSC[C@H](NC(=O)[C@H](C)NC(=O)CNC(=O)[C@H](CC(N)=O)NC(=O)[C@H](C(C)C)NC4=O)C(=O)N[C@@H](CC(=O)O)C(=O)N[C@H](C(=O)N[C@@H](CO)C(=O)O)CSSC[C@H](NC1=O)C(=O)N[C@@H](CCCNC(=N)N)C(=O)N[C@@H](Cc1ccc(O)cc1)C(=O)N[C@@H](CCCNC(=N)N)C(=O)N3)NC(=O)CNC(=O)CNC(=O)[C@H](CO)NC2=O [Ts11] (H-KPKCGLCRYRCCSGGCSSGKCVNGACDCS-OH; disulfide 4-12, 7-28, 11-21, 16-26; N-terminus and C-terminus assumed)
Nav1.4 (rNaV1.4)
  activity on Nav1.4: inactive
Nav1.5 (hNaV1.5)
  activity on Nav1.5: inactive
Kv channels
  effect on kinetics of Kv channel gating: without altering the kinetics of channel gating
  potency as Kv channel blocker (in words): not a potent blocker of Kv channels
Kv1.2 (rKV1.2); [1]
  blocking effect on Kv1.2: 25%
Kv1.2 (rKV1.2); [2]
  increase in blockage at higher concentration, Kv1.2: no significant increase in blockage
Kv10.1
  blocking effect on Kv10.1: 15%
Nav channels
  activity on Nav channels overall (in words): does not target Nav channels
Kv4.2 (rKV4.2); [1]
  blocking effect on Kv4.2: 25%
Kv4.2 (rKV4.2); [2]
  increase in blockage at higher concentration, Kv4.2: no significant increase in blockage
Kv1.3 (hKV1.3); [1]
  blocking effect on Kv1.3: 27%
Kv1.3 (hKV1.3); 5 μM, V1/2 with toxin vs control
  alteration of channel activation properties (Kv1.3): No significant alteration of properties of channel activation
Kv1.3 (hKV1.3); concentration-response fit, Hill equation, n ≥ 3
  Hill coefficient, Kv1.3: 0.8
Kv1.3 (hKV1.3); concentration-response, Hill equation fit, two-electrode voltage-clamp, Xenopus oocytes, pH 7.4, 18–22 °C, mean ± standard error, n ≥ 3, read-out: IC50, inhibition of Kv1.3 currents
  IC50: 17.1 ± 3.3 µM
Kv1.3 (hKV1.3); toxin condition, 5 μM (Figure 3B), normalized peak Itail, control 17.3 ± 0.6 mV, n ≥ 3, mean ± standard error
  V1/2 of Kv1.3 activation: 17.6 ± 0.7 mV
DmNav1
  activity on insect channel DmNav1: inactive
Nav1.1 (rNaV1.1)
  activity on Nav1.1: inactive
Nav1.6 (mNaV1.6)
  activity on Nav1.6: inactive
Shaker IR
  blocking effect on Shaker IR: 10%
hERG; 3 μM, native toxin, two-electrode voltage-clamp, Xenopus oocytes, pH 7.4, 18–22 °C, pulse −90 mV to +40 mV for 2.5 s, step to −120 mV for 2.5 s, n ≥ 3
  blocking effect on hERG: 12%
hERG; 10 μM, compared with 3 μM, data not shown
  increase in blockage at higher concentration, hERG: no significant increase in blockage
